Data reported in US20250027055A1, “METHOD OF CULTURING THREE-DIMENSIONAL CELLULAR TISSUES” (priority 2021, published 2025).

Tests used:
[1] = test system: vascular endothelial cells; test: Monocrotaline exposure of three-dimensional cellular tissue containing hepatocytes, vascular endothelial cells and hepatic stellate cells; CD31 fluorescent immunostaining; assay type: cell-based; settings: mixed three-cell-type three-dimensional tissue; exposure to various concentrations of monocrotaline; FIG. 1B
Text: FIG. 1A is a schematic diagram illustrating the above experiment. […] Then, after exposure to various concentrations of monocrotaline, the three-dimensional cellular tissue was fixed and stained for CD31 by fluorescent immunostaining. CD31 is a marker for endothelial cells.
The upper row of FIG. 1B is a fluorescence microscopy image showing the results of immunostaining. The lower row of FIG. 1B is a skeletonized image obtained by processing the image in the upper row of FIG. 1B.

[2] = test system: vascular endothelial cells; test: Comparative experiment: liver tissue of hepatocytes only and separate three-dimensional tissue of vascular endothelial cells and hepatic stellate cells in the same well, monocrotaline exposure; CD31 fluorescent immunostaining; assay type: cell-based; settings: hepatocyte tissue and endothelial/stellate tissue separate, not in contact, various concentrations of monocrotaline, FIG. 2B
Text: FIG. 2A is a schematic diagram illustrating a comparative experiment. […] Then, after exposure to various concentrations of monocrotaline, these tissues were fixed and stained for CD31 by fluorescent immunostaining.
FIG. 2B is a fluorescence microscopy image showing the results of immunostaining.

Question: Which results are given for C[C@H]1C(=O)O[C@@H]2CCN3CC=C(COC(=O)[C@](C)(O)[C@]1(C)O)[C@H]23 [monocrotaline]?
Answer: damage to the vascular endothelial cells of the blood vessels (CD31 immunostaining) [1]: damaged in a monocrotaline concentration-dependent manner; damage to the vascular endothelial cells of the blood vessels (CD31 immunostaining) [2]: no damage to the vascular endothelial cells of the blood vessels was observed
